We go through 18 compounds from patent US6063782A, “Pyrrolopyridazine derivatives” (Sankyo Company, Limited, priority 1994, dated 2000).

Each structure is given as a SMILES string. Structures can show the parent of a compound that is named as a salt.

The target in test [1] is proton.potassium-adenosine triphosphatase (H+.K+-ATPase) (Sus scrofa, UniProt P19156). Briefly: Proton.potassium-adenosine triphosphatase (H+.K+-ATPase) inhibition test. Type of test: biochemical. As to conditions: microsomal fraction of porcine gastric mucosa, pH=6.85, 37° C.; result given in words only. The method, then:
Proton.potassium-adenosine triphosphatase (H^+.K^+ -ATPase) activation test
According to the method reported by Sachs et al. [J. Biol. Chem., 251, 7690 (1976)], a microsomal fraction obtained from homogenized fresh porcine gastric mucosa by density gradient ultracentrifugation was used as the proton.potassium-adenosine triphosphatase preparation, 10 μl of a solution of a test compound in dimethylsulfoxide were added to 0.75 ml of 70 mM tris-HCl buffer solution (magnesium chloride 5 mM, potassium chloride 20 mM and pH=6.85) containing from 30 to 80 μg/ml (in terms of protein concentration) of the enzyme preparation and the mixture was incubated for 45 minutes at 37° C. with shaking at 200 times per minute. The enzyme reaction was initiated by adding 0.25 ml of 8 mM disodium adenosine triphosphate solution. After 20 minutes of the reaction time, the reaction was stopped by adding 1 ml of a 10k trichloroacetic acid-active carbon (100 mg) solution. The reaction solution was centrifuged (4° C., 3000 rpm, 15 minutes) and the inorganic phosphate in the supernatant prepared from adenosine triphosphate by hydrolysis was measured by colorimetry, according to the method of Yoda and Hokin [Biochem. Biophys. Res. Commun., 40, 880 (1970)]. In a similar manner, the amount of inorganic phosphate was measured in a reaction solution in the absence of potassium chloride. From the difference between the phosphate amounts in the presence and absence of potassium chloride, the proton-potassium-adenosine triphosphatase activity was calculated. Based on the activity value in the control and the values in the test compound at the various concentrations tested, the inhibiting rates (%) and then the 50? inhibiting concentrations (IC50) to proton.potassium-adenosine triphosphatase activity were obtained.

Test [2] has as its system Helicobacter pylori strains 9470, 9472 and 9474. Description: Antibacterial activity against Helicobacter pylori. As to conditions: strains 9470, 9472 and 9474, 37° C., 3 days, slightly aerobic; result given in words only. Type of test: cell-based. The method, then: Antibacterial activity against Helicobacter pylori The antibacterial activity of the compounds of the present invention were evaluated by measuring the minimum inhibitory concentration values (MIC) of the present compounds against Helicobacter pylori strains 9470, 9472 and 9474. These strains of Helicobacter pylori were incubated for 4 days on a plate medium. The medium was prepared by dissolving brain heart infusion agar (Product of DIFCO) in a defined amount of distilled water, by sterilization in an autoclave, injecting horse blood (Product of Nihon Seibutsu Zairyo Co.) into each plate for the medium to contain 7% of the blood and by solidifying. Under slightly aerobic conditions, Helicobacter pylori cultivated at 37° C. for 4 days was suspended in a physiological saline solution for its inocular size to be about 10^8 CFU/ml. The suspension was diluted 100 times, and about 10 μl of the diluted suspension was inoculated on a medium for MIC determination. The medium for MIC determination used had the same compounds as those for preculture. […] In a similar way to the preculture, Helicobacter pylori was cultivated at 37° C. for 3 days under slightly aerobic conditions. […] The minimum concentration which gave no bacterial growth was regarded as MIC of the compound of the present invention.

For test [3], the system named is gastric acid secretion. Description: Gastric acid secretion activity test using pyloric ligation in rats (Shay rat method). Type of test: in vivo. As to conditions: male SD rats, 20 mg/kg injected into the duodenal region, 4 hours, result given in words only. As to the method: Gastric acid secretion activity test using pyloric ligation in rats (Shay rat method)
Pyloric ligation was conducted based on the method of Shay et al. [Gastroenterology, 5, 43 (1945)]. Male rats of SD strain were fasted for 24 hours; their abdomens were sectioned during anesthesia under ether. The duodenal and pyloric regions were exposed and the latter was ligated. A solution of a test compound (10 mg/ml) prepared by use of 1.5w parts of dimethylacetamide, 68.5% parts of polyethyleneglycol (PEG-400) and 30% parts of physiological saline solution, was injected into the duodenal region for the dose to be 20 mg/kg by use of a 1-ml syringe and an injection needle (26G). After injection of the test compound, the abdominal region was sutured. The animals were allowed to a stand for 4 hours without feeding food and water and then sacrified with carbon dioxide gas. The stomach was excised and gastric juice was gathered. The gastric juice sample was centrifuged (4° C., 2500 rpm, 15 minutes). The amount of the supernatant was measured to be as the gastric secretion. The acidity of the gastric juice was determined by the amount (ml) of 0.01 N sodium hydroxide solution required for titration of 0.1 ml of the supernatant to pH 7.0 by use of-an auto-titrating apparatus. The value of gastric acid secretion was calculated from the value of gastric secretion and the acidity of gastric juice. The inhibiting rate was obtained from the values of gastric acid secretion of the control group and of the administered group.

Sequence of proton.potassium-adenosine triphosphatase (H+.K+-ATPase) (P19156 whole entry): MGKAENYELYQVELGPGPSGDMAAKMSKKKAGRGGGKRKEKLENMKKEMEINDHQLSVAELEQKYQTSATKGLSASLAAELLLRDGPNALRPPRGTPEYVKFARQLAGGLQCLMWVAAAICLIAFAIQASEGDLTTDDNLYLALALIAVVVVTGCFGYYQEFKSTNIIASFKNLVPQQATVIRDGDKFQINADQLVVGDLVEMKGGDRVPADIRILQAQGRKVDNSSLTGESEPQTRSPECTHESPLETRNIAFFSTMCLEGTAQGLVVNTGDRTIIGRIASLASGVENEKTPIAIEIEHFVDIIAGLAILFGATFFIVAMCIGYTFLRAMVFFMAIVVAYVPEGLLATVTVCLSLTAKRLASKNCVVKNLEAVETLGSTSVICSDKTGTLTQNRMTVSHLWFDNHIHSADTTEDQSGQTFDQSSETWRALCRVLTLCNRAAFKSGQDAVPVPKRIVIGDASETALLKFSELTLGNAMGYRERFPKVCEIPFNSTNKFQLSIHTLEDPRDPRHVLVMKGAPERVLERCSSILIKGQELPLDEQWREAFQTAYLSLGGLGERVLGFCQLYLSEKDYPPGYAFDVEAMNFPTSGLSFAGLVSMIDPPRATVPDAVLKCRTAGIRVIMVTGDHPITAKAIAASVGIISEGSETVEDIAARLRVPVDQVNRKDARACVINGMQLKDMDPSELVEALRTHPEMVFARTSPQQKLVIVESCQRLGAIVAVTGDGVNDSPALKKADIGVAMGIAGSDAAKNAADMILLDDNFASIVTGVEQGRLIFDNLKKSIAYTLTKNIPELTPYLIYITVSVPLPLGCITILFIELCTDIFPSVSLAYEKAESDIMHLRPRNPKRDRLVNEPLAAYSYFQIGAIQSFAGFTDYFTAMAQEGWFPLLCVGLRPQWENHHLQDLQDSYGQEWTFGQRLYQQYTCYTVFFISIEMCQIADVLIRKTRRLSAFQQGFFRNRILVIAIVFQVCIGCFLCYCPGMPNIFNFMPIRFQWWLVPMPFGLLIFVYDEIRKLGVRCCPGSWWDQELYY
Sequence of proton.potassium-adenosine triphosphatase (H+.K+-ATPase) (P18434 whole entry partner): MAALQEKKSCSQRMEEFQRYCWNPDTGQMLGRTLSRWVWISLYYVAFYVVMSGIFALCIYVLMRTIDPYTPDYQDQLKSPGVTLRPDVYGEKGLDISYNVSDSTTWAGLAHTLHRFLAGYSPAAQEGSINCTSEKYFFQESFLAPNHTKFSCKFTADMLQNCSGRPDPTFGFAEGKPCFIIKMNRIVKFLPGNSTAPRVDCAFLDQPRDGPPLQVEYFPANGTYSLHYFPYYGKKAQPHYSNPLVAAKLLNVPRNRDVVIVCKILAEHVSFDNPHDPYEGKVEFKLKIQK

As for `C/C=C/Cn1c(C)c(C)c2cnnc(OCc3ccc(F)cc3)c21` [Example 74, 1-(2-Butenyl)-7-(4-fluorobenzyloxy)-2,3-dimethylpyrrolo[2,3-d]pyridazine hydrochloride], in test [1], the “inhibiting concentrations (IC50) to proton.potassium-adenosine triphosphatase activity” value (“inhibiting concentrations (IC50)” below) is recorded as “excellent activity”.

Regarding `CC=CCn1c(C)c(C)c2c[n+]([O-])nc(OCc3ccc(F)cc3)c21` [Example 75, 1-(2-Butenyl)-7-(4-fluorobenzyloxy)-2,3-dimethylpyrrolo[2,3-d]pyridazine-5-oxide], in test [1], the “inhibiting concentrations (IC50)” value is “excellent activity”. The “minimum inhibitory concentration (MIC) against Helicobacter pylori” value (from here on “minimum inhibitory concentration (MIC)”) in test [2] was “excellent antibacterial activity”.

In the case of `CC=CCn1c(C)c(C)c2cnnc(OCc3ccc(F)cc3)c21` [Example 1, 1-(2-Butenyl)-7-(4-fluorobenzyloxy)-2,3-dimethylpyrrolo[2,3-d]pyridazine], in test [1], the “inhibiting concentrations (IC50)” value is recorded as “excellent activity”. Besides, the “inhibiting rate of gastric acid secretion” value (from here on “inhibiting rate”) in test [3] is recorded as “excellent activity”. The “minimum inhibitory concentration (MIC)” value in test [2] is “excellent antibacterial activity”.

With `Cc1c(C)n(C2CC2)c2c(OCc3ccccc3)nncc12` [Example 16, 7-Benzyloxy-1-cyclopropyl-2,3-dimethylpyrrolo[2,3-d]pyridazine], the “inhibiting rate” value in test [3] is on record as “excellent activity”. Further, the “minimum inhibitory concentration (MIC)” value in test [2] is recorded as “excellent antibacterial activity”.

On to `C=CCn1c(C)c(C)c2cnnc(OCc3ccccc3)c21` [Example 3, 7-Benzyloxy-2,3-dimethyl-1-(2-propenyl)pyrrolo[2,3-d]pyridazine], for which the “inhibiting rate” value in test [3] is listed as “excellent activity”. Moreover, in test [2], the “minimum inhibitory concentration (MIC)” value was “excellent antibacterial activity”.

Consider `Cc1c(C)n(CC2CC2)c2c(OCc3ccccc3)nncc12` [Example 4, 7-Benzyloxy-1-cyclopropylmethyl-2,3-dimethylpyrrolo[2,3-d]pyridazine], for which the “inhibiting concentrations (IC50)” value in test [1] is reported as “excellent activity”. Moreover, the “minimum inhibitory concentration (MIC)” value in test [2] is on record as “excellent antibacterial activity”.

With `Cc1c(C)n(C[C@@H]2C[C@H]2C)c2c(OCc3ccc(F)cc3F)nncc12` (relative stereo) [Example 58, 7-(2,4-Difluorobenzyloxy)-2,3-dimethyl-1-(2-methylcyclopropylmethyl)pyrrolo[2,3-d]pyridazine], the “inhibiting concentrations (IC50)” value in test [1] is listed as “excellent activity”. Besides, the “inhibiting rate” value in test [3] was “excellent activity”. In addition, in test [2], the “minimum inhibitory concentration (MIC)” value is “excellent antibacterial activity”.

Regarding `C=C(C)Cn1c(C)c(C)c2cnnc(OCc3ccccc3)c21` [Example 14, 7-Benzyloxy-2,3-dimethyl-1-(2-methyl-2-propenyl)-ovrrolo[2,3-d]pyridazine], the “inhibiting rate” value in test [3] is “excellent activity”. The “minimum inhibitory concentration (MIC)” value in test [2] is given as “excellent antibacterial activity”.

With `CC=CCn1c(C)c(C)c2cnnc(OCc3ccc(Cl)cc3Cl)c21` [Example 21, 1-(2-Butenyl)-7-(2,4-dichlorobenzyloxy)-2,3-dimethylpyrrolo[2,3-d]pyridazine], the “inhibiting concentrations (IC50)” value in test [1] is reported as “excellent activity”. Besides, the “minimum inhibitory concentration (MIC)” value in test [2] is listed as “excellent antibacterial activity”.

Regarding `CC=CCn1c(C)c(C)c2cnnc(OCc3c(Cl)cccc3Cl)c21` [Example 49, 1-(2-Butenyl)-7-(2,6-dichlorobenzyloxy)-2,3-dimethylpyrrolo[2,3-d]pyridazine], the “inhibiting concentrations (IC50)” value in test [1] is given as “excellent activity”. Also, the “minimum inhibitory concentration (MIC)” value in test [2] is “excellent antibacterial activity”.

`CC=CCn1c(C)c(C)c2cnnc(OCc3ccc(F)cc3F)c21` [Example 22, 1-(2-Butenyl)-7-(2,4-difluorobenzyloxy)-2,3-dimethylpyrrolo[2,3-d]pyridazine]: in test [1], the “inhibiting concentrations (IC50)” value is recorded as “excellent activity”. For the same compound, the “inhibiting rate” value in test [3] is recorded as “excellent activity”. Moreover, the “minimum inhibitory concentration (MIC)” value in test [2] is listed as “excellent antibacterial activity”.

For `Cc1c(C)n(C[C@@H]2C[C@H]2C)c2c(OCc3ccc(F)cc3)nncc12` (relative stereo) [Example 57, 7-(4-Fluorobenzyloxy)-2,3-dimethyl-1-(2-methylcyclopropylmethyl)pyrrolo[2,3-d]pyridazine], the “inhibiting concentrations (IC50)” value in test [1] is “excellent activity”. In test [3], the “inhibiting rate” value was “excellent activity”. Also, in test [2], the “minimum inhibitory concentration (MIC)” value is “excellent antibacterial activity”.

As for `CC=CCn1c(C)c(C)c2c[n+]([O-])nc(OCc3ccc(F)cc3F)c21` [Example 76, 1-(2-Butenyl)--7-(2,4-difluorobenzyloxy)-2,3-dimethylpyrrolo[2,3-d]pyridazine-5-oxide], in test [1], the “inhibiting concentrations (IC50)” value is recorded as “excellent activity”. Moreover, the “minimum inhibitory concentration (MIC)” value in test [2] was “excellent antibacterial activity”.

As for `C=CCn1c(C)c(C)c2cnnc(OCc3ccc(Cl)cc3)c21` [Example 12, 7-(4-Chlorobenzyloxy)-2,3-dimethyl-1-(2-propenyl)povrrolo[2,3-d]pyridazine], the “inhibiting rate” value in test [3] is “excellent activity”. The “minimum inhibitory concentration (MIC)” value in test [2] is given as “excellent antibacterial activity”.

Regarding `C=CCn1c(C)c(C)c2cnnc(OCc3ccc(Cl)cc3Cl)c21` [Example 17, 7-(2,4-Dichlorobenzyloxy)-2,3-dimethyl-1-(2-propenyl)pyrrolo[2,3-d]pyridazine], in test [1], the “inhibiting concentrations (IC50)” value is given as “excellent activity”. In test [3], the “inhibiting rate” value is on record as “excellent activity”. In test [2], the “minimum inhibitory concentration (MIC)” value was “excellent antibacterial activity”.

As to `Cc1c(C)n(CC2CC2)c2c(OCc3ccc(F)cc3)nncc12` [Example 35, 1-Cyclopropylmethyl-7-(4-fluorobenzyloxy)-2,3-dimethylpyrrolo[2,3-d]pyridazine], in test [1], the “inhibiting concentrations (IC50)” value is “excellent activity”. In test [3], the “inhibiting rate” value is reported as “excellent activity”.

As for `C=CCn1c(C)c(C)c2cnnc(OCc3ccc(F)cc3)c21` [Example 7, 7-(4-Fluorobenzyloxy)-2,3-dimethyl-1-(2-propenyl)pyrrolo[2,3-d]pyridazine], in test [1], the “inhibiting concentrations (IC50)” value was “excellent activity”. Besides, in test [3], the “inhibiting rate” value is “excellent activity”. In addition, the “minimum inhibitory concentration (MIC)” value in test [2] was “excellent antibacterial activity”.

As for `CC=CCn1c(C)c(C)c2cnnc(OCc3ccccc3)c21` [Example 5, 7-Benzyloxy-1-(2-butenyl)-2,3-dimethylpyrrolo[2,3-d]pyridazine], the “inhibiting rate” value in test [3] is “excellent activity”. The “minimum inhibitory concentration (MIC)” value in test [2] is on record as “excellent antibacterial activity”.
